Each structure is given as a SMILES string. Like-named read-outs stand apart in the source and are kept apart here.

These results are taken from publication PMC6222871, “Suppression of Hepatitis C Virus Genome Replication and Particle Production by a Novel Diacylglycerol Acyltransferases Inhibitor” (Molecules : A Journal of Synthetic Chemistry and Natural …, 2018).

Data set [1] addresses T1, DGAT-1 (Homo sapiens, UniProt O75907).
T1 construct: expressed in transfected cells; host or cells: 293T cells (membrane fraction)
T1 sequence (O75907 1-488): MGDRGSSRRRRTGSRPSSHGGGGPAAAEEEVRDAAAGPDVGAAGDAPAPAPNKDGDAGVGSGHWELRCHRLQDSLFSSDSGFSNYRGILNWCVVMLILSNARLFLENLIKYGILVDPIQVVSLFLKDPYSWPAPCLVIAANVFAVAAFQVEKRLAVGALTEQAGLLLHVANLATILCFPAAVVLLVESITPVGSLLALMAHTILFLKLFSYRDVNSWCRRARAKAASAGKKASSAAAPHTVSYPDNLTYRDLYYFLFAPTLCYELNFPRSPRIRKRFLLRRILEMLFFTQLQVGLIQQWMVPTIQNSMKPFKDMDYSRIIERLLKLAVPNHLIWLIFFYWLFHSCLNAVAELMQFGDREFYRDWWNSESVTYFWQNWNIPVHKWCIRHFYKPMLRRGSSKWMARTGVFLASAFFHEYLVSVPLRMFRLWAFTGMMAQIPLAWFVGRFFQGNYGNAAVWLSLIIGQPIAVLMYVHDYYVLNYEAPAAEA
The experiment in a line: DGAT-1 in vitro assay, membrane fractions of DGAT-1-transfected 293T cells, NBD-palmitoyl CoA, TLC. Type of data set: biochemical. How it is done: pcDNA3.1-DGAT1 plasmid was transfected into 293T cells by using a lipofectamine 2000 transfection reagent (Invitrogen) as described by the manufacturer. At 24 h after transfection, transfected cells were harvested and cells were resuspended with 500 μL of 50 mM Tris-HCL/250 mM sucrose. Resuspended cells were disrupted by 15 passages through a 27-gauge needle and centrifugation at 600× g for 5 min. The supernatant was ultracentrifuged at […] for 30 min and the supernatant was discarded. The pellets were resuspended in a total of 500 μL of 50 mM ice-cold Tris-HCl/250 mM sucrose. Then, a master mix containing 20 μL of 1 M-Tris-HCl, 4 μL of 1 M MgCl2, 10 μL of 4 mM DOG in acetone, 10 μL of 12 mg/mL BSA and 10 μL of 500 μM NBD-palmitoyl CoA in 20 mM Tris was prepared and incubated at 37 °C for 2 min. Also, 50 μg total membrane proteins were incubated with 10j and A922500 at 37 °C for 1 h. Extracted proteins were added into master mix and incubated at 37 °C for 10 min. The reaction was terminated by adding 4 mL CHCl3/methanol (2:1, v/v). Samples were mixed by vortexing and 800 μL of water was added and remixed. Samples were allowed to sit at room temperature for 1 h. […] Plate was allowed to air dry for 1 h before quantification of reaction products. The synthesized TG was determined by the ChemiDoc imaging system (Bio-Rad, Hércules, CA, USA).

In data set [2] the test system is HNF4α. Nature of the data set: HNF4α western blot in Huh7.5-J6/JFH1 cells. Type of data set: cell-based. The conditions noted are these: up to 10 μM, 72 h. An excerpt: Since DGATs play an important role in maintaining liver-likeness in hepatocytes, the antiviral effect of 10j might be due to mere loss of this liver-specific character. […] In addition, HNF4α was also reported to be reduced in DGAT1-silenced cell lines. Therefore, we wished to test effects of 10j on HNF4α.
(Immunoblotting shows a protein as a band on a membrane.)

For data set [3], the system named is HCV IRES. Nature of the data set: HCV IRES-dependent translation, dual luciferase reporter in Huh7.5 cells. Particulars: up to 10 μM. Type of data set: cell-based, hepatitis C virus. As for the experimental part:
A dual luciferase reporter plasmid, which expresses firefly and renila luciferases through cap and HCV IRES-dependent translation, was transfected into Huh7.5 cells in the presence of 10j. Dual luciferase assay was conducted as previously described.

In data set [4] the test system is Huh7.5-J6/JFH1 cells. The experiment in a line: immunofluorescence of NS3 and LD (BODIPY) in Huh7.5-J6/JFH1 cells. It counts as cell-based, hepatitis C virus. Particulars: 72 h. How it is done: Based on previous results, we noticed that EC50 values required for inhibition of the HCV genome replication by 10j were around 1–2 μM ranges (Figure 2 and Table 3). However, IC50 value required for inhibition of the enzymatic DGAT activities in vitro by 10j was reported to be higher than 5 μM (Table 2 and Figure 6E). Based on these observations, we hypothesized that inhibition of DGATs by 10j may not play a direct role in suppression of the viral genome replication. To test this hypothesis, we decided to study effects of 10j on DGAT and the viral genome replication in a simultaneous manner. […] Then, the viral NS3 protein and LDs were visualized by using an anti-NS3 antibody and BODIPY, respectively. […] Significant reduction of LD was only seen after treatment of 10j higher than 5 μM. In order to confirm this observation, we decided to utilize another HCV-positive cell—JFH1-NS5A-GFP cells—which were infected with infectious HCV genotype 2a particles with a visually tractable NS5A due to the presence of in-frame-fused GFP protein with NS5A. TGs of these cells were stained with ORO for visualization in parallel. […] In accordance with the previous result, reduction of the NS5A-GFP protein preceded decline of TG biosynthesis (Figure 7D).
Immunofluorescence analysis of Huh7.5-J6/JFH1 or Huh7.5-JFH1-5A-GFP cells in the presence of 10j was conducted as previously described. Fluorescence were examined and captured by Nikon confocal laser scanning microscopic system. LD content was quantified using the ImageJ program.

Data set [5] relates to HCV NS5A (Huh7.5-Bart79I, genotype 1b). Nature of the data set: western blot of HCV NS5A protein in Huh7.5-Bart79I cells. Type of data set: cell-based, hepatitis C virus. How it is done:
Due to the tight coupling of viral genome replication to its protein expression, inhibition of viral RNA genome replication leads to a subsequent reduction of viral protein expression.
(A) Dose-dependent western blot analysis of Huh7.5-J6/JFH1 cells treated with increasing concentrations of 10j for 72 h by measuring protein expression levels of HCV NS3 relative to the β-actin. Daclatasvir, an NS5A inhibitor was used as a positive control. (B) Time-dependent western blot analysis of J6/JFH1 RNA-transfected Huh7.5 cells treated with 8 μM of 10j for increasing periods of time analyzed by measuring protein expression levels of HCV NS3 relative to the β-actin. (C,D) Same experiments were performed as in (A,B) to study effects of 10j on the expression levels of the NS5A protein of Huh7.5-Bart79I cells in a dose- as well as time-dependent manners.
Western blot analysis of Huh7.5-J6/JFH1 or Bart79I cells treated with 10j was conducted as previously described. Relative amounts of HNF4α proteins were quantified by using an HNF4α mouse monoclonal antibody (M04), clone 4E2 (Abnova) with the dilution of 1:1000.

On the set-up of data set [6]: method as in PMID 23141914. The conditions noted are these: cited from earlier work.

The term IC50 denotes the concentration that gives 50% inhibition. As for `O=C(NCc1ccco1)c1ccc2[nH]c(COc3ccc(C45CC6CC(CC(C6)C4)C5)cc3)nc2c1` [10j, 2-{[4-(adamant-1yl)phenoxy]methyl)-N-(furan-2-ylmethyl)-1H-benzo[d]imidazole-5-carboxamide], in data set [1] (DGAT-1 membrane fractions from 293T cells, read-out: IC50, in vitro synthesis of TG by DGAT-1), the IC50 was 17.4 µM. Moreover, the IC50 in data set [1] (Table 2 and Figure 6E, read-out: IC50 required for inhibition of the enzymatic DGAT activities in vitro (summary)) is greater than 5 µM. The “expression levels of HNF4α” value in data set [2] was “remained unaltered”. Besides, the “HCV IRES-dependent translation” value in data set [3] is listed as “remained unaltered”. Besides, in data set [4], the “concentration at which the viral NS3 protein started to disappear” value was 1 µM and the “concentration for significant reduction of LD” value is “higher than 5 μM”. The “LD levels (BODIPY)” value in data set [4] (up to 2 μM) is on record as “stayed unaltered”. Also, in data set [5] (10 μM of 10j, 8 μM (figure legend)), the “time required for reducing 50% of HCV protein expression (T1/2)” value was determined as 37.4 h. Moreover, the EC50 in data set [5] (Hepatitis C virus, NS5A, read-out: concentration required for reducing 50% of HCV protein expression (EC50)) was 4.1 µM. Also, in data set [6] (mice fed with high-fat diet, versus control mice), the fat tissues result was “significant decrease”. In data set [6] (mice), the high-density lipoprotein-cholesterol result was “significant increase”; the “total TG, total cholesterol and low-density lipoprotein cholesterol in the blood” value is listed as “decreased levels”.
